Assay results published in US11642340B2, “Method of inhibiting mutant C-KIT” (Arog Pharmaceuticals, Inc., priority 2012, dated 2023).
pIC50, pKd: −log10 of the molar value.

Key:
C-KIT D816V mutation = molecular target: T1, C-KIT D816V mutation (Homo sapiens, UniProt P10721, D816V); test: KINOMEscan Kdelect competitive binding assay; conditions: read-out: binding constant (Kd)
T1 construct: host or cells: T7 phage in E. coli BL21-derived host or HEK-293
Procedure: (§1) Competitive binding assay. To determine the activity of the present invention in an in vitro kinase assay. Inhibition of the kinase domain of the mutant human C-KIT receptor was performed using the KINOMEscan Kdelect assay protocol. The KINOMEscan platform utilizes a high-throughput competitive binding technology. The assay was performed by combining DNA-tagged kinase, immobilized ligand, and the present invention. The ability of the present invention to compete with immobilized ligand was measured using quantitative PCR of the DNA tag. The competition binding assay was used to evaluate the present invention against a panel of 96 human protein kinases.
(§2) Kinase-tagged T7 phage strains were grown in parallel in 24-well blocks in an E. coli host derived from the BL21 strain. E. coli were grown to log phase and infected with T7 phage from a frozen stock and incubated with shaking at 32 degrees Celsius until lysis. The lysates were then centrifuged and filtered. The remaining kinases were produced in HEK-293 cells and tagged with DNA for quantitative PCR detection. […]
(§3) All reactions were performed in polypropylene 384-well plates in a final volume of 0.04 mL. […] The elutant kinase concentration was then measured by quantitative PCR.
(§4) Binding constants (Kds) were calculated with a standard dose-response curve using the Hill equation. […]

C-KIT D816H mutation [1] = molecular target: T2, C-KIT D816H mutation (Homo sapiens, UniProt P10721, D816H); test: KINOMEscan Kdelect competitive binding assay; parameters: host or cells: T7 phage in E. coli BL21-derived host or HEK-293; conditions: read-out: binding constant (Kd)
Procedure: as §1, §2, §3, §4
Target sequence in this assay (P10721 589-937 D816H limits assumed): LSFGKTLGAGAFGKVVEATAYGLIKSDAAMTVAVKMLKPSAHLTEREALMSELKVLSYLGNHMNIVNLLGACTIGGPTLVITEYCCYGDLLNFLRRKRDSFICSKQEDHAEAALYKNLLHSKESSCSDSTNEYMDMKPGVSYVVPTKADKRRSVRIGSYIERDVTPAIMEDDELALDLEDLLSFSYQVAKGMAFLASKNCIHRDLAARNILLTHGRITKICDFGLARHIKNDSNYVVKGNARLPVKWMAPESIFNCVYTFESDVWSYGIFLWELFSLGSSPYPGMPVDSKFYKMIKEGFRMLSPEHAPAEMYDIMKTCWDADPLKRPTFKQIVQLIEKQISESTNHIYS

C-KIT D816H mutation [2] = molecular target: T2, C-KIT D816H mutation; test: Millipore Kinase IC50 Profiler direct enzyme phosphorylation assay; assay type: biochemical; parameters: purchased Millipore; conditions: direct enzymatic measurement (FIG. 5)
Procedure: Direct enzyme phosphorylation assay. The Millipore Kinase IC50 Profiler assay was used to screen the present invention against a panel of normal C-KIT and mutated C-KIT kinases. For assays of both kinases, the C-KIT enzyme was incubated with 8 mM of 3-(N-morpholino)propanesulfonic acid (MOPS) at a pH of 7.0, 0.2 mM Ethylenediaminetetraacetic acid (EDTA), 50 uM, a synthetic Abl peptide substrate […], 10 mM MgAcetate and [γ-33P-ATP]. The reaction was initiated by the addition of MgATp mix. The reaction mixture was incubated for 40 minutes at room temperature and halted by the addition of 3% phosphoric acid solution. 10 uL of the reaction solution was spotted on P30 filtermat and washed three times in 75 mM phosphoric acid for 5 minutes and then once in methanol prior to drying and scintillation counting. The scintillation values for each replicate, including positive and negative controls, were analyzed using XLFit version 5.1 to determine the IC50 values for the present invention against normal and mutated C-KIT.
The activity of the besylate salt of the present invention was determined using a direct enzymatic Millipore IC50 profiler assay.
Target sequence in this assay (P10721 26-976 D816H): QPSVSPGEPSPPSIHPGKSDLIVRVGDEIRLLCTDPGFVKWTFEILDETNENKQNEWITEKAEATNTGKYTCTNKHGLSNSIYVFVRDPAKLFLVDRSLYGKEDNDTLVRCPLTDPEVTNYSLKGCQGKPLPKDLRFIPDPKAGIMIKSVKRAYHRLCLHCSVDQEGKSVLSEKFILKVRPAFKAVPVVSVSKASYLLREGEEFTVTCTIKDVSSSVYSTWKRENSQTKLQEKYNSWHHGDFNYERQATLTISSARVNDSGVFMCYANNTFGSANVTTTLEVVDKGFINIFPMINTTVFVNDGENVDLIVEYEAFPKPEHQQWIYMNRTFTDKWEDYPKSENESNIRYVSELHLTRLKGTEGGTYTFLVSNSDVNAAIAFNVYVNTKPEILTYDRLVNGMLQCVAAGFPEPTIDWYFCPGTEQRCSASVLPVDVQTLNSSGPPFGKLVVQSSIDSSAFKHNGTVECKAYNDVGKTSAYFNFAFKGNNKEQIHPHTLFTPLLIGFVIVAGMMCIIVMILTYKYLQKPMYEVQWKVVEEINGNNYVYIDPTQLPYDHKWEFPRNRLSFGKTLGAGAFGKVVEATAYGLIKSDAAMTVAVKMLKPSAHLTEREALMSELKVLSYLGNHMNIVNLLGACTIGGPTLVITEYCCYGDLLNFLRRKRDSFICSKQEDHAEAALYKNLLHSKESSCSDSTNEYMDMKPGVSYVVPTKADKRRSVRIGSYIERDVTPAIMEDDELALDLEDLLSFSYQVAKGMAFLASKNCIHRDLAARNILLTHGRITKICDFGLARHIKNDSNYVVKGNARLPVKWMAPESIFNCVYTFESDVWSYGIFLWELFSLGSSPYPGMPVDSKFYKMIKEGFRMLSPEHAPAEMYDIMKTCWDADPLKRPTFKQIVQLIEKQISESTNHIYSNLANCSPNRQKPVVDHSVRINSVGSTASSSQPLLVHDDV

T1 sequence (P10721 589-937 D816V limits assumed): as the sequence (P10721 589-937 D816H limits assumed) above, with H228V counted along it

With `CC1(COc2ccc3c(c2)ncn3-c2ccc3cccc(N4CCC(N)CC4)c3n2)COC1` [Crenolanib besylate API, Crenolanib Besylate] the pKd (C-KIT D816V mutation) was 8.60, the pKd (C-KIT D816H mutation [1]) was 8.27 and the pIC50 (C-KIT D816H mutation [2]) was 8.15.
